# Measured values reported in publication PMC11870037 (Molecules, 2024).
# How the values were obtained:
# [1] = target: T1, SERT (Rattus norvegicus, UniProt P31652); test: Monoamine uptake transporter assay, [3H]5-HT uptake by SERT; assay type: biochemical
# T1 construct: [3H]-paroxetine, rat cerebral cortex; from tissue; host or cells: rat cerebral cortex (membranes / crude synaptosomes)
# [2] = target: NET (Rattus norvegicus, UniProt Q63380); test: Monoamine uptake transporter assay, [3H]NE uptake by NET; assay type: biochemical
# [3] = system: mice; test: Tail suspension test (TST); assay type: in vivo, mouse; conditions: oral, immobility duration
# [4] = system: mice; test: Locomotor activity test; assay type: in vivo, mouse; conditions: oral 5, 10, 20, 40, and 80 mg/kg, 15 min period
# [5] = Pharmacokinetic study in rats; assay type: in vivo; conditions: rat, plasma
# Description: 7. Pharmacokinetics Study
# The HPLC conditions were as follows: Shimadzu LC30AD spectrometer ; column, SHIMADZU C18 (2.1 mm×50 mm, 2 μm); mobile phase A: 0.1% FA-Acetonitrile; mobile phase B: 0.1% FA-Deionized water; ﬂow rate, 0.4 mL/min; column temperature: 25 °C; UV detection was performed at 210 nm. The Mass conditions were as follows: ESI (positive), Ion spray voltage: 5500V, Curtain gass: 30, Temperature: 550°C, Ion Source Gas1: 55, Collision Gas: 7. For routine compound 11b screening, rats (n = 6/group) were dosed via the lateral tail vein at the indicated dose for iv administration (2 mg/kg, NS) or via oral gavage (20 mg/kg, Deionized water). At 0, 0.08, 0.25, 0.5,1、2、4、7、10 and 24h after administration, serial blood samples were collected from the lateral tail vein into heparinized collection tubes (approximately 0.25 mL). The plasma was separated by centrifugation, and the sample was prepared for LC/MS analysis by protein precipitation with acetonitrile. The plasma samples were analyzed for drug and internal standard via the LCMS/MS protocol.
# [6] = target: Dopamine transporter (Rattus norvegicus, UniProt P23977); test: Dopamine transporter binding ([3H]-WIN35,428); conditions: rat striatum; read-out: Ki DAT
# [7] = target: Dopamine D1 receptor (Rattus norvegicus, UniProt P18901); test: Dopamine D1 receptor binding ([3H]-SCH23390); conditions: rat striatum
# [8] = target: T2, Dopamine D3 receptor (Rattus norvegicus, UniProt P19020); test: Dopamine D3 receptor binding ([3H]7-OH-DPAT); conditions: rat olfactory tubercle
# T2 construct: A rat olfactory tubercle was homogenized in 20 volumes of ice; from tissue; host or cells: rat olfactory tubercle membranes
# [9] = target: T3, Serotonin 5-HT2A receptor (Rattus norvegicus, UniProt P14842); test: Serotonin 5-HT2A receptor binding ([3H]ketanserin); conditions: rat brain cortex
# T3 construct: The cerebral cortex of a rat was finely homogenized using an ULTRA TURAX; from tissue; host or cells: rat cerebral cortex membranes
# [10] = target: Histamine H2 receptor (Homo sapiens, UniProt P25021); test: Histamine H2 receptor binding ([3H]tiotidine, Sf9 membranes); conditions: Sf9 cells and membrane
# [11] = target: T4, Histamine H4 receptor (Homo sapiens, UniProt Q9H3N8); test: Histamine H4 receptor binding ([3H]Na-Methylhistamine, Sf9 membranes); conditions: Sf9 cells and membrane
# T4 construct: expressed in transfected cells; host or cells: Sf9 membranes
# [12] = target: T5, M2 muscarinic receptor (Homo sapiens, UniProt P08172); test: Muscarinic M2 receptor binding (lymphocyte suspension); conditions: lymphocyte suspension and sections
# T5 construct: blood lymphocytes were used at a concentration of 1 × 10⁶ cells; endogenous in cells; host or cells: peripheral blood lymphocytes
# [13] = target: T6, M4 muscarinic cholinergic receptor (Homo sapiens, UniProt P08173); test: Muscarinic M4 receptor binding (lymphocyte suspension); conditions: lymphocyte suspension and sections
# T6 construct: blood lymphocytes were used at a concentration of 1 × 10⁶ cells; endogenous in cells; host or cells: peripheral blood lymphocytes
# [14] = target: T7, σ1 receptor (Cavia porcellus, UniProt Q60492); test: σ1 receptor binding ([3H]-(+)-pentazocine); conditions: guinea pig brain membrane
# T7 construct: from tissue; host or cells: guinea pig brain membranes
# Description: Antagonist potency was determined according to literature, by measuring inhibition of RAMH-induced [35S]GTPγS binding in recombinant hH3R membranes as previously. The […]
# Inverse agonist potency was conducted by measuring inhibition of basal [35S]GTPγS binding in recombinant hH3 Rmembranes. Test compound or vehicle was added to the wells, followed by [35S]GTPγS to a final concentration of 0.2 nM. Nonspecific binding was determined in the presence of 10 μM unlabeled GTPγS. The control agonist signal was determined in wells containing vehicle in place of the test compound, and the basal signal was determined in wells containing vehicle in place of both diluted compound and the RAMH […]
# 3. Selectivity of Compound 11b for Additional Receptors […]
# transporter, 3[H]-WIN35,428, rat striatum; (2) Dopamine D1 receptor, 3[H]-SCH23390, rat striatum; (3) Dopamine D2 receptor, [3H]spiperone, rat striatum; (4) Dopamine D3 receptor, [3H] 7-OH-DPAT, rat olfactory tubercle; (5) Serotonin 5-HT2A receptor, [3H]Ketanserin, rat brain cortex;
# (6) Serotonin 5-HT2C receptor, [3H]mesulergine, rat brain cortex; (7) Adrenergic α2 receptor, [3H]- rauwolscine, rat cerebral cortex; (8) Histamine H2 receptor, [3H]tiotidine, Sf9 cells and […]
# [15] = system: mice; conditions: oral, immobility duration
# T1 sequence (P31652 whole entry): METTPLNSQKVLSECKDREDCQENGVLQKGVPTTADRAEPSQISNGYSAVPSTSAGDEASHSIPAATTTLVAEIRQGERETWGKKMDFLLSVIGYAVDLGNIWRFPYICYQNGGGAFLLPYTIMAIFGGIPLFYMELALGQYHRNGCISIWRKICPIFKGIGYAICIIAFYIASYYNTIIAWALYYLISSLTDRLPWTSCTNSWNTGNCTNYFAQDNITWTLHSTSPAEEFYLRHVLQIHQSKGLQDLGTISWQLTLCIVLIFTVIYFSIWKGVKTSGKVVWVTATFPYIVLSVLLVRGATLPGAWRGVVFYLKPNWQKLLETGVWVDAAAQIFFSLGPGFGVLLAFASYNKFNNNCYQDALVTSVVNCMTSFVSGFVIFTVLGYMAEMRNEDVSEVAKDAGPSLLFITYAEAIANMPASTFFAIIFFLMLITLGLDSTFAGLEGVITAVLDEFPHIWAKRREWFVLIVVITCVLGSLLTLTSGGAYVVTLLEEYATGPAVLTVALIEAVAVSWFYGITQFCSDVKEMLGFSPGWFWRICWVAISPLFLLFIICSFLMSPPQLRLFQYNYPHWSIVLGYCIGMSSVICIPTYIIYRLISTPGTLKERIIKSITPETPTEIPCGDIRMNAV
# NET, sequence (Q63380 1-617): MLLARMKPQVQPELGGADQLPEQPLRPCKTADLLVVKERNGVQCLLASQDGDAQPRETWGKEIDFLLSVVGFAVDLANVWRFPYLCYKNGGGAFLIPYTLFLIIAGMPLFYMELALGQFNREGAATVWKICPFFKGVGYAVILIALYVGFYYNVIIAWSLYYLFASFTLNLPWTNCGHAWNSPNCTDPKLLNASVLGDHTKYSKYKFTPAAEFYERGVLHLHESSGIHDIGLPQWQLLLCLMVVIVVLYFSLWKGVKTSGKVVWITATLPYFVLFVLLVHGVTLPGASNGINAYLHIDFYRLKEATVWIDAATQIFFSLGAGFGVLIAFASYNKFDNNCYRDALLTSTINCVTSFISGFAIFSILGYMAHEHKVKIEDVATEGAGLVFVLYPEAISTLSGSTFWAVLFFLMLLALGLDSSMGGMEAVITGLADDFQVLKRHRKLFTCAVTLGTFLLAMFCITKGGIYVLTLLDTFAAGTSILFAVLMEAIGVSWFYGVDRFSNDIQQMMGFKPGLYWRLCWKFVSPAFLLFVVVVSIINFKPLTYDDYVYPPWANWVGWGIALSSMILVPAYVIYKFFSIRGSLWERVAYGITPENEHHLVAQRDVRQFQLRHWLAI
# T7 sequence (Q60492 whole entry): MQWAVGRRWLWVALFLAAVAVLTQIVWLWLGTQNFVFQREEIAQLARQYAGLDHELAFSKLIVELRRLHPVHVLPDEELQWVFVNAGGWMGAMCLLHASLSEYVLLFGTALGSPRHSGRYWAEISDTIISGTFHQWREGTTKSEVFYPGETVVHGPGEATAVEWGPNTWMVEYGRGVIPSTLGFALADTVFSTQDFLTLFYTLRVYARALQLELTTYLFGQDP
# T2 sequence (P19020 whole entry): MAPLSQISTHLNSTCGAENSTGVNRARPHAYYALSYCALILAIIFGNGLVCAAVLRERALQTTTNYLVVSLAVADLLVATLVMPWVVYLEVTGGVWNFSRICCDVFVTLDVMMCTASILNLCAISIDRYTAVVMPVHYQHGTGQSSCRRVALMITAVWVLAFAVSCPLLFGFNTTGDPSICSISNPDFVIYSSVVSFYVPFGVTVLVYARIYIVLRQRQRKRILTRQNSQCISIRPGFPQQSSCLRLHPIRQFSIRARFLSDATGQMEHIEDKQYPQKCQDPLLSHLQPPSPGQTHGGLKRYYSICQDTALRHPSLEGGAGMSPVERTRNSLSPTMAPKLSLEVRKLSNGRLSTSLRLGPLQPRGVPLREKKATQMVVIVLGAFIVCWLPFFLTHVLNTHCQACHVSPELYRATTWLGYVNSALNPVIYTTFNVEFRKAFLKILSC
# Dopamine transporter, sequence (P23977 whole entry): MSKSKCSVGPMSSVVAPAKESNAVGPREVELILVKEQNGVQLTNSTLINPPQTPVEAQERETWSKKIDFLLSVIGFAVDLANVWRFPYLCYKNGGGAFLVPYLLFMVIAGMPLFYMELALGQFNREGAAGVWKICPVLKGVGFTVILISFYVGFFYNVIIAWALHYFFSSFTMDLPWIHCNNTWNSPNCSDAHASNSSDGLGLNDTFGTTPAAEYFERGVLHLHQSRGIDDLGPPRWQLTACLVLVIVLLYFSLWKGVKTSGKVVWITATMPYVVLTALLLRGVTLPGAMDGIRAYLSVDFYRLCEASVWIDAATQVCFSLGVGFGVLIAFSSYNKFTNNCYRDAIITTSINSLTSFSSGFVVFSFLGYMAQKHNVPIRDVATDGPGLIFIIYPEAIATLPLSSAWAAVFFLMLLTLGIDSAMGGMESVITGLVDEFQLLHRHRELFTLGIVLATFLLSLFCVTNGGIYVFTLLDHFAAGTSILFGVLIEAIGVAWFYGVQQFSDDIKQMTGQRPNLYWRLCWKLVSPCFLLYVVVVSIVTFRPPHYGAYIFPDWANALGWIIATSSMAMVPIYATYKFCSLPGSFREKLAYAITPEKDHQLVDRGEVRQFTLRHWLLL
# Histamine H2 receptor, sequence (P25021 whole entry): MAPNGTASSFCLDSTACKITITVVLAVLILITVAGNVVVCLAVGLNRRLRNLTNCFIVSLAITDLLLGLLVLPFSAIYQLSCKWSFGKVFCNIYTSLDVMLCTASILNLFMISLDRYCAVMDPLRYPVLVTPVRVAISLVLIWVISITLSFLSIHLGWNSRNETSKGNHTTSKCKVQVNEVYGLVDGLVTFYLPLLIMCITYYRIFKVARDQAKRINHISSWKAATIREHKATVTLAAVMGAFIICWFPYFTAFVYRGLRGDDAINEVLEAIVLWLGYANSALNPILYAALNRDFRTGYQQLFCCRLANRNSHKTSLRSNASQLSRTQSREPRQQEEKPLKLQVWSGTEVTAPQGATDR
# T4 sequence (Q9H3N8 whole entry, species assumed): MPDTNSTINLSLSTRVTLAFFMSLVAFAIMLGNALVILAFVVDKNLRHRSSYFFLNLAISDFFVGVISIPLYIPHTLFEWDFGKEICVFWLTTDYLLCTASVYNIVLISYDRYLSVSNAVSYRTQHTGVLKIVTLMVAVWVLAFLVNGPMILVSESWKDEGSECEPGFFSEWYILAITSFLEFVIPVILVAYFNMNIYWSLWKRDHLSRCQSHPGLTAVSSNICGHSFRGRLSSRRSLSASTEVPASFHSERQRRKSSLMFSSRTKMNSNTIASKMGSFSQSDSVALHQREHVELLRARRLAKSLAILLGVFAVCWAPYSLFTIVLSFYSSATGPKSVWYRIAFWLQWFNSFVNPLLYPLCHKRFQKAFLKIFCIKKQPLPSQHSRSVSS
# Dopamine D1 receptor, sequence (P18901 whole entry): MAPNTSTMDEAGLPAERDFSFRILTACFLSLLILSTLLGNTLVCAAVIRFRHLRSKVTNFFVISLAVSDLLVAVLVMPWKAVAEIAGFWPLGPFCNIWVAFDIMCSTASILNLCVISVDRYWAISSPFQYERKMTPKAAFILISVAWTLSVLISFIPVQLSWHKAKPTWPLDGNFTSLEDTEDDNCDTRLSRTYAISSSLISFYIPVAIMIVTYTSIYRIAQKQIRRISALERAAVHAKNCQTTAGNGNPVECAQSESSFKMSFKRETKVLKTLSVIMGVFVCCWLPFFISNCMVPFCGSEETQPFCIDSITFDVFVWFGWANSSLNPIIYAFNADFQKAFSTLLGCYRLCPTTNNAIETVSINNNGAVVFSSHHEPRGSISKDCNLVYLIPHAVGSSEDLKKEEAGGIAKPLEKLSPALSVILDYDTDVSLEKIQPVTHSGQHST
# T5 sequence (P08172 whole entry): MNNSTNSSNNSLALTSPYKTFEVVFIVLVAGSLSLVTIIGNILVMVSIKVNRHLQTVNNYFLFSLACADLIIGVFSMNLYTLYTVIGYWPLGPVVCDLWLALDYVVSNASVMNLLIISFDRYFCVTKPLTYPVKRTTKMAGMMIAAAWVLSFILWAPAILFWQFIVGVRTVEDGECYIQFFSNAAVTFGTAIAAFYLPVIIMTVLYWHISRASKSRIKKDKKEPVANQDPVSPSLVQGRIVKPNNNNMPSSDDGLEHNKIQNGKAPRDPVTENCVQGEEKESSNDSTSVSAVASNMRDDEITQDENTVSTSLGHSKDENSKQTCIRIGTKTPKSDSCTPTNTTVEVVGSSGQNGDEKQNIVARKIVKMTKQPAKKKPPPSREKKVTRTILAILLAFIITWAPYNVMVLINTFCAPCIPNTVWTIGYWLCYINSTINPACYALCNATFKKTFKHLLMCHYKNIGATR
# T6 sequence (P08173 whole entry): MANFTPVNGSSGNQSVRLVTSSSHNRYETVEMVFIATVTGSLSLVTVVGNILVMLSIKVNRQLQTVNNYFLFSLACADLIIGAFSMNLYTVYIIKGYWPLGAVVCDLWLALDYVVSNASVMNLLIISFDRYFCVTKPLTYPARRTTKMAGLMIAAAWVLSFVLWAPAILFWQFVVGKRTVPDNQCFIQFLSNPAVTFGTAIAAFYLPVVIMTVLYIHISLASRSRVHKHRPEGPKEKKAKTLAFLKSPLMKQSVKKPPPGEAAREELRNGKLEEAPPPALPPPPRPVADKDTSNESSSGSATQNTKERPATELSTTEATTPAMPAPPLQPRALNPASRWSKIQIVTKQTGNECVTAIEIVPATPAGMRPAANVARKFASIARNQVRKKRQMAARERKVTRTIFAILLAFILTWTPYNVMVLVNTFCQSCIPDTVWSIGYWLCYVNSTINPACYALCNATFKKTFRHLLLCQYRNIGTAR
compound,measurement,setting,value
"CN(C)CCC(Oc1cccc2c1OCO2)c1ccc(OCCCN2CCCCC2)cc1.O=C(O)C(=O)O (stereo not shown) [Compound 11b, 3-(benzo[d][1,3]dioxol-4-yloxy)-N,N-dimethyl-3-(4-(3-(piperidin-1-yl)propoxy)phenyl)propan-1-amine oxalate]","Activation (10 μM, %) SERT","[1]; 10 μM, n = 3",4.4 ± 0.3%
same,inhibition at 10 µM,"[1]; 10 μM, n = 3",> 90%
same,IC50,"[1]; [3H]5-HT uptake, antagonist assay",20.1 nM
same,"Activation (10 μM, %) NET","[2]; 10 μM, n = 3",2.7 ± 0.2%
same,inhibition at 10 µM,"[2]; 10 μM, n = 3",> 90%
same,IC50,"[2]; [3H]NE uptake, antagonist assay",49.6 nM
same,minimal effective dose (MED) in TST,[3],10 mg/kg
same,total travel distance (locomotor activity),[4],did not significantly alter the total travel distance
same,AUC(0-inf),[5]; 2 mg/kg iv,265 ng·h/mL
same,AUC(0-t),[5]; 2 mg/kg iv,261 ng·h/mL
same,Cmax,[5]; 2 mg/kg iv,224 ng/mL
same,MRT last,[5]; 2 mg/kg iv,1.2 h
same,Tmax,[5]; 2 mg/kg iv,0.08 h
same,half-life,[5]; 2 mg/kg iv,1.3 h
same,AUC(0-inf),[5]; 20 mg/kg po,944 ng·h/mL
same,AUC(0-t),[5]; 20 mg/kg po,942 ng·h/mL
same,Cmax,[5]; 20 mg/kg po,134 ng/mL
same,MRT last,[5]; 20 mg/kg po,5.4 h
same,Tmax,[5]; 20 mg/kg po,2 h
same,half-life,[5]; 20 mg/kg po,2.6 h
same,bioavailability,"[5]; 20 mg/kg po vs 2 mg/kg iv, read-out: F (bioavailability)",35.6%
same,Ki,[6],> 1000 nM
same,Ki,[7],> 1000 nM
same,Ki,[8],> 1000 nM
same,Ki,[9],320 nM
same,Ki,[10],> 1000 nM
same,Ki,[11],> 1000 nM
same,Ki,[12],> 1000 nM
same,Ki,[13],> 1000 nM
same,Ki,[14],> 1000 nM
same,minimal effective dose (MED) in FST,[15],6 mg/kg
